Data on 33 molecules can be found in ChEMBL document CHEMBL5136983, “How the structural properties of the indole derivatives are important in kinase targeted drug design?: A case study on tyrosine kinase inhibitors” (Bioorg Med Chem, 2022).

The structures appear in SMILES notation.

T1 sequence (P00533 whole entry): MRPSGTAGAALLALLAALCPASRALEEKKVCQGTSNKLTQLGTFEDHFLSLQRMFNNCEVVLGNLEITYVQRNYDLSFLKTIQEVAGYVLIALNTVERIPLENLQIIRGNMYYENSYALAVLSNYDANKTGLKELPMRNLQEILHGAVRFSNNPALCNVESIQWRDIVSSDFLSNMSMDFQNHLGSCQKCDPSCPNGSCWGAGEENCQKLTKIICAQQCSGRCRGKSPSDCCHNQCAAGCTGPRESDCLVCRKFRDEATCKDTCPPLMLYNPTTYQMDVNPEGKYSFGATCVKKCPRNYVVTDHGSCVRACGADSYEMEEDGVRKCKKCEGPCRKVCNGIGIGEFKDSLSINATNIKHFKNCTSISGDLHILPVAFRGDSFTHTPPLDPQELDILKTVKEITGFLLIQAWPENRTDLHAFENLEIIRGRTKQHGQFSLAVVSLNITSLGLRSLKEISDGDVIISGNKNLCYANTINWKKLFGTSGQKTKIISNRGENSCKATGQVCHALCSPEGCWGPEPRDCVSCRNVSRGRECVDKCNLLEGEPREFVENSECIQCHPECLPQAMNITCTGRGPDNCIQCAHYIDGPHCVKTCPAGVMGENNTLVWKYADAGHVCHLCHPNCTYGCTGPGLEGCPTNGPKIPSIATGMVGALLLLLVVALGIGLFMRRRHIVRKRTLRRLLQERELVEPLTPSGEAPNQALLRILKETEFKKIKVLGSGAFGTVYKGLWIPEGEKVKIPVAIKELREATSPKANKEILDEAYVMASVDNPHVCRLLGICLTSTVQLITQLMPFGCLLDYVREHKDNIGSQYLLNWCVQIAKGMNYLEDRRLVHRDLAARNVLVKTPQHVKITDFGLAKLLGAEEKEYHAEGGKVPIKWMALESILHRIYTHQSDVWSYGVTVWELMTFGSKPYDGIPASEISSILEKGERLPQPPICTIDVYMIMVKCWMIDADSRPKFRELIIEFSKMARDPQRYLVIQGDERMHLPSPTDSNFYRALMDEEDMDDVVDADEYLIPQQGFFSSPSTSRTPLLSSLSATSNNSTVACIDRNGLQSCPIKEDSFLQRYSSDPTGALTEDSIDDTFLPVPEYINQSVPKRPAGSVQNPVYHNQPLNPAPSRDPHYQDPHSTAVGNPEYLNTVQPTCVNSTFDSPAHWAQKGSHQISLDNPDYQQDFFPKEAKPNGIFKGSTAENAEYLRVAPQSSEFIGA
T2 sequence (P12931 2-536 limits assumed): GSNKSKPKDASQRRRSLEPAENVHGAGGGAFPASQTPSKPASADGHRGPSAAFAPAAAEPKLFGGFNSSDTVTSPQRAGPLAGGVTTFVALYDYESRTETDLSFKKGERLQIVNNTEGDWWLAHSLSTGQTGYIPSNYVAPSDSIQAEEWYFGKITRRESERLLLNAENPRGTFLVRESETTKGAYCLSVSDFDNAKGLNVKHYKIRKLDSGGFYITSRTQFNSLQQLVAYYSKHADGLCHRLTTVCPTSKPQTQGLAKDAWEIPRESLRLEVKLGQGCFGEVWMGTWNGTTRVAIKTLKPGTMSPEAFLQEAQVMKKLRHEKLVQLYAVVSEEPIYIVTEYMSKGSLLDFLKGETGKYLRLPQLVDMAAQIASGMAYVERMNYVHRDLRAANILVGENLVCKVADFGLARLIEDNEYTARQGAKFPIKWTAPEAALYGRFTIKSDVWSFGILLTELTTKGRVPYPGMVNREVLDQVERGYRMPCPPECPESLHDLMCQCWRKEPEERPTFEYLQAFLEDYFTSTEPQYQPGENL

One series concerns the target T1, Epidermal growth factor receptor (Homo sapiens, UniProt P00533). The series is described as follows: Inhibition of EGFR derived from human A-431 cells using copolymer of Glu/Ala/Tyr as substrate by scintillation counting method.
By IC50 is commonly meant the midpoint of a concentration-inhibition curve. Turning to `Cn1c(SSc2c(C(=O)Nc3ccccc3)c3c(O)cccc3n2C)c(C(=O)Nc2ccccc2)c2c(O)cccc21`, the concentration for half-maximal inhibition (IC50) was over 100 µM. Still for that read-out and setting: in the case of `Cc1ccc2c(c1)c(C(=O)Nc1ccccc1)c(SSc1c(C(=O)Nc3ccccc3)c3cc(C)ccc3n1C)n2C` it was over 100 µM; in that of `Cc1ccc2c(C(=O)Nc3ccccc3)c(SSc3c(C(=O)Nc4ccccc4)c4ccc(C)cc4n3C)n(C)c2c1`, over 100 µM.

A further series relates to A549. The series is described as follows: Antiproliferative activity against human A549 cells assessed as cell growth inhibition. The series is classed as functional, cell-based.
For `CCn1c(C)c(C(=O)NCc2ccc(F)cc2)c2cc(OCC(=O)NCCOc3ccccc3OC)ccc21`, the IC50 stood at 4.99 µM.

A further series has as its system HeLa. The series is described as follows: Antiproliferative activity against human HeLa cells assessed as cell growth inhibition. In kind it is functional, cell-based.
As for `CCn1c(C)c(C(=O)NCc2ccc(F)cc2)c2cc(OCC(=O)NCCOc3ccccc3OC)ccc21`, the IC50 turned out to be 6.81 µM.

Another series concerns SW480. The series is described as follows: Antiproliferative activity against human SW480 cells assessed as cell growth inhibition. In kind it is functional, cell-based.
`CCn1c(C)c(C(=O)NCc2ccc(F)cc2)c2cc(OCC(=O)NCCOc3ccccc3OC)ccc21`: the IC50 stood at 13.1 µM.

The target in another series is T1, Epidermal growth factor receptor. The series can be described thus: Inhibition of EGFR in human A-431 cell membrane vesicles using phospholipase C-gamma-1 as substrate incubated for 10 mins by scintillation counter method. The series is classed as cell membranes, Membrane vesicle.
`CN(C)CCNc1ncnc2c1[nH]c1ccccc12` registered an IC50 of over 10 µM.

On to `c1ccc2c(c1)[nH]c1c(NC3CCCCC3)ncnc12`, for which the IC50 was over 10 µM.

System in a further series: not listed separately
The series is described as follows: Antiproliferative activity against mouse Swiss-3T3 cells assessed as cell growth inhibition incubated for 72 hrs by cell counter method. The series is classed as toxicity, cell-based.
Turning to `Cn1c(SSc2c(C(=O)Nc3ccccc3)c3c(O)cccc3n2C)c(C(=O)Nc2ccccc2)c2c(O)cccc21`, the IC50 at 72 h was 1.9 µM.

System in the next series: not listed separately
The series is described as follows: Inhibition of PDGFR (unknown origin). Further details: species or system Homo sapiens.
On to `Cc1ccccc1-c1nc2c(c3c1[nH]c1ccc(O)cc13)C(=O)NC2=O`, for which the IC50 was over 30 µM. Turning to `COc1cc2[nH]c3c(-c4ccccc4C)nc4c(c3c2cc1OC)C(=O)NC4=O`, 1 µM corresponded to half-maximal inhibition (IC50).

`COc1ccccc1-c1nc2c(c3c1[nH]c1ccc(OCc4ccccc4)cc13)C(=O)NC2=O` returned an IC50 of over 30 µM. The same measure, in the same setting: in the case of `COc1ccccc1-c1nc2c(c3c1[nH]c1ccc(O)cc13)C(=O)NC2=O` it was 10 µM; in that of `O=C1NC(=O)c2c1nc(-c1ccccc1)c1[nH]c3ccccc3c21`, over 30 µM. Still for that read-out and setting: next, `COc1cc2[nH]c3c(-c4ccccc4)nc4c(c3c2cc1OC)C(=O)NC4=O`: 1 µM; `COc1ccc2[nH]c3c(-c4ccccc4)nc4c(c3c2c1)C(=O)N(C)C4=O`: over 30 µM. Same read-out and setting: in the case of `Cc1ccccc1-c1nc2c(c3c1[nH]c1ccc(OCc4ccccc4)cc13)C(=O)NC2=O` it was over 30 µM; in that of `COc1ccc2[nH]c3c(-c4ccccc4)nc4c(c3c2c1)C(=O)NC4=O`, 3 µM.

System in a further series: not listed separately
The series is described as follows: Inhibition of PDGF-BB-stimulated PDGFR autophosphorylation in mouse Swiss-3T3 cells treated for 2 hrs followed by PDGF-BB stimulation measured after 10 mins by immunoblot analysis. In kind it is cell-based. (In general: Immunoblotting shows a protein as a band on a membrane.)
`COc1cccc2cc(C(=O)c3cc4ccccc4[nH]3)[nH]c12` yielded an IC50 of over 30 µM.

With `CN(C)CCC(=O)Oc1ccc2[nH]c(C(=O)c3cc4ccccc4[nH]3)cc2c1`, the IC50 was determined as 0.1 µM.

Molecule `Cc1ccc2[nH]c(C(=O)c3cc4ccccc4[nH]3)cc2c1` returned a concentration for half-maximal inhibition (IC50) of 7.5 µM. Turning to `COc1ccc2[nH]c(C(=O)c3cc4ccccc4[nH]3)cc2c1`, the IC50 was 0.3 µM. Consider `O=C(c1cc2ccccc2s1)c1cc2ccccc2s1`, for which the IC50 is over 30 µM. Same read-out and setting: in the case of `COCC(=O)Oc1ccc2[nH]c(C(=O)c3cc4ccccc4[nH]3)cc2c1` it was 0.2 µM; in that of `COc1ccc2cc(C(=O)c3cc4ccccc4[nH]3)[nH]c2c1`, 0.3 µM; in that of `O=C(c1cc2ccccc2[nH]1)c1cc2cc(O)ccc2[nH]1`, 0.2 µM.

System in the next series: not listed separately
The series is described as follows: Inhibition of v-src (unknown origin).
In the case of `CNC(=O)c1c([Se][Se]c2c(C(=O)NC)c3ccccc3n2C)n(C)c2ccccc12`, the IC50 amounted to 0.4 µM. The same measure, in the same setting: in the case of `CCN(CC)CCn1c([Se][Se]c2c(C(=O)NC)c3ccccc3n2CCN(CC)CC)c(C(=O)NC)c2ccccc21` it was 1.7 µM; in that of `Cn1c([Se][Se]c2c(C(=O)OC(C)(C)C)c3ccccc3n2C)c(C(=O)OC(C)(C)C)c2ccccc21`, 1.5 µM; in that of `NC(Cc1c(SSc2[nH]c3ccccc3c2CC(N)C(=O)NCc2ccccc2)[nH]c2ccccc12)C(=O)NCc1ccccc1` (stereo unspecified), 7 µM. The same measure, in the same setting: in the case of `CNC(=O)c1c(SSc2c(C(=O)NC)c3ccccc3n2C)n(C)c2ccccc12` it was 6 µM; in that of `NC(Cc1c([Se][Se]c2[nH]c3ccccc3c2CC(N)C(=O)NCc2ccccc2)[nH]c2ccccc12)C(=O)NCc1ccccc1` (stereo unspecified), 2 µM. In turn, `CN(C)CCNC(=O)c1c([Se][Se]c2c(C(=O)NCCN(C)C)c3ccccc3n2C)n(C)c2ccccc12` came in with an IC50 of 1.8 µM.

A further series addresses T2, Proto-oncogene tyrosine-protein kinase Src (Homo sapiens, UniProt P12931). The series can be described thus: Inhibition of p60 c-src (unknown origin).
`O=C(OCCN1CCCCC1)c1cc2ccccc2n1Cc1ccccc1`: half-maximal inhibition (IC50) required 1.34 µM.

The target in another series is T2, Proto-oncogene tyrosine-protein kinase Src. The series is described as follows: Inhibition of src (unknown origin).
In turn, `O=C1/C(=N\c2ccc(Cl)cc2)c2ccccc2N1Cc1ccccc1` gave an IC50 of 106 µM.

The next series has as its target T1, Epidermal growth factor receptor.
Description: Inhibition of EGFR derived from human A-431 cell membrane vesicles using copolymer of Glu/Ala/Tyr as substrate by scintillation counting method
For `O=C(CCc1c(SSc2[nH]c3ccccc3c2CCC(=O)Nc2ccccc2)[nH]c2ccccc12)Nc1ccccc1`, the concentration for half-maximal inhibition (IC50) was determined as 0.85 µM.
